Experimental data reported in publication PMC6277555, “Short Symmetric-End Antimicrobial Peptides Centered on β-Turn Amino Acids Unit Improve Selectivity and Stability” (Frontiers in Microbiology, 2018).
Converted amounts (≈) assume the structure as drawn. Residues, ends and D or L forms follow the SMILES beside them.

Key:
S. aureus ATCC 29213 = type: cell-based, Staphylococcus aureus
Experimental: The minimal inhibitory concentration (MIC) was determined according to a previously described method ([Chou et al., 2016]). Bacteria were cultured overnight to mid-log phase in MHB at 37°C and then diluted to give final concentrations ranging from 2 × 10^5 to 7 × 10^5 CFU/mL. Then, 50 μL of serial twofold dilutions of the peptides were added to each well in 96-well microtiter plates with a mixed solution containing 0.01% acetic acid and 0.2% bovine serum albumin (BSA, Sigma) was used to dissolve and dilute the peptides. Then, equal amounts of bacterial aliquots were incubated with the above peptide solution for 18-24 h at 37°C. The experiment was performed in triplicate using three replicates for each peptide and each bacterium. The broth was employed as a negative control and the broth with microbial cells was used as a positive control. The lowest concentration of peptide that prevented visible turbidity was defined as the MIC. The condition sensitivity of peptides was tested in an MIC assay in different environments, including salt sensitivity, thermal sensitivity and different pH values similar to our previous method ([[…] et al., 2008]; [Ma et al., 2012]). […] For the heat resistance experiments, the peptides were incubated at 100°C for 30 min and cooled on ice for 10 min. […] The determination methods for these MIC assays were same as described above. To test the effects of serum on the antimicrobial activities of the peptides, human serum was dissolved in MHB to reach final concentrations of 25 and 50%. The determination methods for these MIC assays were same as described above.

B. subtilis CMCC 63501 = type: cell-based, Bacillus subtilis
Experimental: (§1) The minimal inhibitory concentration (MIC) was determined according to a previously described method ([Chou et al., 2016]). Bacteria were cultured overnight to mid-log phase in MHB at 37°C and then diluted to give final concentrations ranging from 2 × 10^5 to 7 × 10^5 CFU/mL. Then, 50 μL of serial twofold dilutions of the peptides were added to each well in 96-well microtiter plates with a mixed solution containing 0.01% acetic acid and 0.2% bovine serum albumin (BSA, Sigma) was used to dissolve and dilute the peptides. Then, equal amounts of bacterial aliquots were incubated with the above peptide solution for 18–24 h at 37°C. The experiment was performed in triplicate using three replicates for each peptide and each bacterium. The broth was employed as a negative control and the broth with microbial cells was used as a positive control. The lowest concentration of peptide that prevented visible turbidity was defined as the MIC.

S. aureus = experiment: Time killing assay; type: cell-based, Staphylococcus aureus; details: mean of three independent assays
Experimental: The ability of peptides to kill bacterial cells was further investigated by analyzing the fraction of cell survival upon peptide treatment at various exposure times according to a previously described method ([Wiradharma et al., 2012]). Briefly, E. coli and S. aureus were treated at MIC and 2 × MIC concentrations with peptides. At various time periods (0, 5, 10, 30, 60, 90, 120, and 150 min), microbial suspensions were diluted at three different dilutions and plated on MHA plates. Microbial colonies were formed and counted after 24 h of incubation. The results were presented as the mean data from three independent assays.

S. aureus ATCC 43300 = type: cell-based, Staphylococcus aureus
Experimental: as §1

[1] = test system: S. epidermidis ATCC 12228; type: cell-based, Staphylococcus epidermidis
Experimental: as §1

[2] = LPS-binding assay (BODIPY-TR-cadaverine displacement); parameters: species or system Escherichia coli; details: BC displacement at the MIC concentration; relative to 10 μg/mL polymyxin B
Experimental: The binding affinities of peptides to LPS were examined using the BODIPY-TR-cadaverine fluorescent dye (BC, Sigma, United States) displacement assay, in which a probe bound to cell-free LPS results in dequenching of BC fluorescence. Stock solutions of LPS from E. coli O111:B4 (5 mg/mL; Sigma-Aldrich, China) and BC (2.5 mg/mL; Sigma-Aldrich, China) were prepared and diluted in Tris buffer (pH 7.4, 50 mM) to reach a final concentration of 50 μg/mL of LPS and 5 μg/mL BC. A 100 μL aliquot of the LPS-probe and peptide mixture (50 μL LPS and BC solutions at final concentrations of 25 μg/mL LPS and 2.5 μg/mL BODIPY-TR-cadaverine, 50 μL peptide with various concentrations ranging from 1 to 64 μM) was added in a sterile 96-well black plate. The fluorescence was measured on a spectrofluorophotometer (the Infinite 200 pro, Tecan, China) at excitation and emission wavelengths of 580 and 620 nm, respectively, with each test performed independently in triplicate. The values were converted to % ΔF (AU) using the following equation:
where Fobs is the observed fluorescence at a given peptide concentration, F0 is the initial fluorescence of BC with LPS in the absence of peptides, and F100 is the BC fluorescence with LPS cells upon addition of 10 μg/mL polymyxin B, which is a prototype LPS binder and was used as a positive control.

[3] = RP-HPLC retention time as measure of relative hydrophobicity; type: physicochemical; details: analytical RP-HPLC; hydrophobicity increases with retention time
Experimental: These peptides' […] identified via matrix-assisted laser desorption/ionization time-of-flight mass spectrometry (MALDI-TOF MS, Linear Scientific Inc., United States), using α-cyano-4-hydroxycinnamic acid as the matrix. […] Quantitative peptides were dissolved in deionized water and stored at -20°C before the assessments. The rest of the peptides were stored as powders at -20°C to prevent peptide degradation. The structures and molecular weights of the peptides were verified by MALDI-TOF MS. […] The relative hydrophobicity of the symmetric-end peptides was reliably reflected by their different HPLC retention times, and the hydrophobicity increased with increasing HPLC retention times ([Lee et al., 2014]; [Zhu et al., 2014]). The HPLC retention times for […]

S. faecalis ATCC 29212 = type: cell-based, Streptococcus faecalis
Experimental: as §1

E. coli UB1005 = type: cell-based, Escherichia coli
Experimental: as §1

CC[C@H](C)[C@H](N)C(=O)N[C@@H](Cc1c[nH]cn1)C(=O)N[C@@H](CCCCN)C(=O)N[C@@H](Cc1ccccc1)C(=O)N[C@@H](Cc1c[nH]c2ccccc12)C(=O)N[C@@H](CCCNC(=N)N)C(=O)N[C@@H](CS)C(=O)N[C@@H](CCCNC(=N)N)C(=O)N[C@@H](CCCNC(=N)N)C(=O)N[C@@H](CCCNC(=N)N)C(=O)N[C@@H](Cc1ccccc1)C(=O)N[C@@H](CS)C(=O)N[C@@H](CCCNC(=N)N)C(=O)N[C@@H](Cc1c[nH]c2ccccc12)C(=O)N[C@@H](Cc1ccccc1)C(=O)N[C@@H](CCCCN)C(=O)N[C@@H](Cc1c[nH]cn1)C(=O)N[C@H](C(N)=O)[C@@H](C)CC [PQ] (H-IHKFWRCRRRFCRWFKHI-NH2; N-terminus assumed)
MIC (S. aureus ATCC 29213; ATCC 29213): 8 µM (≈ 20.6 µg/mL) | MIC, CaCl2 (S. aureus ATCC 29213; ATCC 29213): 8 µM (≈ 20.6 µg/mL) | MIC, Control (S. aureus ATCC 29213; ATCC 29213): 8 µM (≈ 20.6 µg/mL) | MIC, FeCl3 (S. aureus ATCC 29213; ATCC 29213): 8 µM (≈ 20.6 µg/mL) | MIC, Heat (100°C) (S. aureus ATCC 29213; ATCC 29213): 32 µM (≈ 82.4 µg/mL) | MIC, KCl (S. aureus ATCC 29213; ATCC 29213): 8 µM (≈ 20.6 µg/mL) | MIC, MgCl2 (S. aureus ATCC 29213; ATCC 29213): 8 µM (≈ 20.6 µg/mL) | MIC, NH4Cl (S. aureus ATCC 29213; ATCC 29213): 8 µM (≈ 20.6 µg/mL) | MIC, NaCl (S. aureus ATCC 29213; ATCC 29213): 8 µM (≈ 20.6 µg/mL) | MIC, ZnCl2 (S. aureus ATCC 29213; ATCC 29213): 8 µM (≈ 20.6 µg/mL) | MIC, pH 4.0 (S. aureus ATCC 29213; ATCC 29213, pH 4): 8 μM | MIC, pH 6.0 (S. aureus ATCC 29213; ATCC 29213, pH 6): 8 μM | MIC, pH 8.0 (S. aureus ATCC 29213; ATCC 29213, pH 8): 8 μM | MIC, pH 10.0 (S. aureus ATCC 29213; ATCC 29213, pH 10): 8 μM | MIC (B. subtilis CMCC 63501): 16 µM (≈ 41.2 µg/mL) | Time to kill S. aureus (S. aureus; peptide at 1 × MIC): 30 min | Time to kill S. aureus (S. aureus; peptide at 2 × MIC): 30 min | MIC (S. aureus ATCC 43300): 8 µM (≈ 20.6 µg/mL) | MIC [1]: 8 µM (≈ 20.6 µg/mL) | LPS binding, fluorescence (% ΔF) [2]: above 80% | Retained time (HPLC retention time) [3]: 12.385 min | MIC (S. faecalis ATCC 29212): 16 µM (≈ 41.2 µg/mL) | MIC (E. coli UB1005): 8 µM (≈ 20.6 µg/mL)
